Assay results reported in patent US4902675A, “"2-pyridyl and 4-pyridyl phosphine gold (I) anti tumor complexes"” (SmithKline Beckman Corporation, priority 1986, dated 1990).
Several values for one entry are separate records, joined by “and”; a condition that tells them apart may be missing. Equal entries are not always repeated.

Legend:
[1] = maximally tolerated dose for female mice, ip qDX5 (P388 study); format: in vivo, mouse; conditions: B62DF female mice, ip qDX5 regimen
Method: (§1) 10^6 P388 leukemia cells are inoculated ip in B6D2F1 mice. Twenty-four hours later, if the tumor inoculum proves to be free of bacterial contamination (as determined by 24 hours incubation in thioglycollate broth), animals are randomized into groups of 6 and housed in shoebox cages. The compound to be evaluated is dissolved in a minimal volume of either N,N-dimethylacetamide (DMA) or 95% ethanol (depending upon solubility). An equal volume of saline is added; if the drug comes out of solution an equal volume of polyethoxylated castor oil is added and then saline qs to a concentration such that the desired dose is delivered in 0.5 ml. The final concentration of DMA, ethanol and polyethoxylated castor oil is […]. Dilutions for lower doses are made with saline so there is a decreasing proportion of organic solvents in the vehicle with decreasing dosage. These vehicles provide soluble formulations (or suspensions). Formulations are prepared immediately prior to injection. The compound is administered ip on Days 1 through 5 (i.e. treatment is initiated 24 hrs after tumor inoculation). Each experiment includes three groups of 6 animals as untreated controls and animals treated with a positive control, cisplatin, at two dose levels. Animals are weighed as a group on Days 1, 5 and 9 and average weight change (Δ wt.) is used as a reflection of toxicity. Each experiment also includes an inoculum titration-groups of 8 mice inoculated ip with 10^5 to 10^0 P388 leukemia cells. The titration is used to calculate cell kill achieved by treatment with drugs. Animals are monitored daily for mortality and experiments are terminated after 45 days. The endpoint is median survival time (MST) and increase in lifespan (ILS) which is the percentage of increase in MST relative to untreated controls. Untreated controls inoculated ip with 10^6 P388 leukemia cells generally survive for a median of 9 to 11 days. A drug is considered active if it produces ≥25 percent ILS.
^(a) maximally tolerated dose for […] female mice on an ip qDX5

P388 leukemia = assay: in vivo ip P388 lymphocytic leukemia mouse model, increase in lifespan; conditions: mice bearing ip P388 leukemia; ip Days 1 through 5; figures separated by slashes are data from separate experiments; active if ≥25 percent ILS
Text: P388 lymphocytic leukemia is currently the most widely used animal tumor model for screening for antitumor agents and for detailed evaluation of active compounds. This tumor system is widely accepted as an antitumor agent screening tool because it is sensitive to virtually all of the clinically active antineoplastic agents; quantitative and reproducible; amenable for large-scale screening; and predictive for activity in other animal tumor models.
as §1, with “The endpoint is median survival time (MST) and increase in lifespan (ILS) which is the percentage of increase in MST relative to untreated controls. Untreated controls inoculated ip with 10^6 P388 leukemia cells generally survive for a median of 9 to 11 days. A drug is considered active if it produces ≥25 percent ILS.” left out

B16 melanoma = assay: in vivo ip B16 melanoma assay, increase in lifespan; parameters: species or system mouse; conditions: mice bearing ip B16 melanoma; ip qD × 9; ILS ≥25% indicates activity
Method: (§2) In this system, groups of eight B6D2F1 mice are inoculated ip with 0.5 ml of a 10% (w:v) brei of B16 melanoma prepared from pooled sc tumors excised at 14-21 days from […] donor mice. Daily treatment is begun 24 hours after tumor impantation and is continued daily for ten (10) days. The route of drug administration is ip. The mice are monitored daily for survival for sixty (60) days. Antitumor activity is assessed by prolongation of median survival time. An ILS of≥25% indicates activity in this tumor model.
(§3) ^(b) maximally tolerated dose for B6D2F1 mice on an ipqD ×
(§4) 9 regimen (Regimen is preferably qD × 10 but supply of Compound No.
(§5) 3 was extinguished on day 9).
^(c) maximum increase in lifespan produced in mice bearing ip B16

[2] = maximally tolerated dose for B6D2F1 mice, ip qD × 9 (B16 study); format: in vivo, mouse; conditions: ip qD × 9 regimen
Method: as §2, §3, §4, §5

[3] = literature, Struck et al. 1966; cited from earlier work

[Cl][Au][PH](CC[PH]([Au][Cl])(c1ccncc1)c1ccncc1)(c1ccncc1)c1ccncc1 [Compound 2, μ-[1,2-Bis(di-4-pyridylphosphino)ethane]bis(chlorogold)]
MTD, maximally tolerated dose [1]: 12 mg/kg

[Au+].[Cl-].c1ccc(P(CCP(c2ccccn2)c2ccccn2)c2ccccn2)nc1.c1ccc(P(CCP(c2ccccn2)c2ccccn2)c2ccccn2)nc1 [Compound 3, Chlorobis[1,2-bis(di-2-pyridylphosphino)ethane]gold]
ILS (max), maximum increase in lifespan (P388 leukemia): 80% and 75% and 83% and 84%
ILS, maximum increase in lifespan (B16 melanoma): 43%
MTD, maximally tolerated dose [1]: 8 mg/kg
MTD, maximally tolerated dose [2]: 10 mg/kg

[Cl][Au][PH](CC[PH]([Au][Cl])(c1ccccn1)c1ccccn1)(c1ccccn1)c1ccccn1 [Compound 1, μ-[1,2-Bis(di-2-pyridylphosphino)ethane]bis(chlorogold)]
ILS (max), maximum increase in lifespan (P388 leukemia): 55% and 60%
MTD, maximally tolerated dose [1]: 6 mg/kg

OCC1OC([S][Au][PH](CC[PH]([Au][S]C2OC(CO)C(O)C(O)C2O)(c2ccccn2)c2ccccn2)(c2ccccn2)c2ccccn2)C(O)C(O)C1O (stereo not shown) [Compound 4]
ILS (max), maximum increase in lifespan (P388 leukemia): 85% and 53% and 56%
MTD, maximally tolerated dose [1]: 8 mg/kg

c1ccc(P(CCP(c2ccccc2)c2ccccc2)c2ccccc2)cc1 [1,2-bis(diphenylphosphino)ethane]
cytotoxic activity [3]: cytotoxic activity
